{"source": "paper PMC2948534", "about": "(American journal of respiratory cell and molecular biology, 2005)", "key": {"A549 epithelial cells": {"system": "A549 epithelial cells", "experiment": "LDH release", "assay_type": "cell-based, human", "settings": "for effect of receptor inhibitor on LL-37-induced LDH release: 1 h pretreatment (pertussis toxin 100 ng/ml; PD1683 2 μM; AG1478 1 μM), then 50 μg/ml LL-37 for 24 h, DMEM without serum"}, "[1]": {"system": "airway epithelial or monocyte-like cell line", "settings": "presence of FBS; cited from earlier work"}}, "note": "Ends that are not written are not given here.", "data": [{"compound": "C=CC(=O)Nc1ccc2ncnc(Nc3cccc(Br)c3)c2c1", "note": "[PD1683]", "values": [{"measurement": "effect of receptor inhibitor on LL-37-induced LDH release", "setting": "A549 epithelial cells", "value": "No decrease in LDH release"}]}, {"compound": "CRAMP", "values": [{"measurement": "LDH release effects at >100 μg/ml in the presence of human serum", "setting": "A549 epithelial cells; 10% human serum, data not shown", "value": "similarly suppressed"}, {"measurement": "cell death compared with LL-37", "setting": "A549 epithelial cells; A549 cells", "value": "induced significantly less cell death than LL-37"}, {"measurement": "concentrations at which no statistically significant LDH release was observed", "setting": "A549 epithelial cells; data not shown", "value": "< 100", "unit": "µg/mL"}]}, {"compound": "pertussis toxin", "values": [{"measurement": "effect of receptor inhibitor on LL-37-induced LDH release", "setting": "A549 epithelial cells", "value": "No decrease in LDH release"}]}, {"compound": "indolicidin: cathelicidin peptide (ILPWKWPWWPWRR; ends and bridges not checked; UniProt P33046 131-143, looked up)", "values": [{"measurement": "induction of cell death", "setting": "[1]", "value": "do not induce cell death"}]}, {"compound": "COc1cc2ncnc(Nc3cccc(Cl)c3)c2cc1OC", "note": "[AG1478]", "values": [{"measurement": "effect of receptor inhibitor on LL-37-induced LDH release", "setting": "A549 epithelial cells", "value": "No decrease in LDH release"}]}]}
